Results published in patent US20240254140A1, “COMPOUNDS AND THEIR USE IN THE TREATMENT OF BACTERIAL INFECTION” (Hoffmann-La Roche Inc., priority 2021, published 2024).
Converted amounts (≈) assume the structure as drawn.

Tested on: Escherichia coli ATCC 25922
Test: Minimal Inhibitory Concentration (MIC) determination, broth microdilution
Type: cell-based
Settings: strain Escherichia coli ATCC 25922, broth microdilution per CLSI M07-A10, 18-24 hours at 35±2° C., lowest concentration for complete growth inhibition; for MIC: ATCC25922
Description: Minimal Inhibitory Concentration (MIC) Determination:
The MIC of antibacterial compounds against multiple species and strains was determined using the broth microdilution method according to M07-A10 Clinical and Laboratory Standards Institute (CLSI) guidelines, using the appropriate broth medium. In short, the compound plates were prepared by dispensing 100 μL of each stock solution in the first well of a 96 well microtiter plate (MTP) at a concentration 100-fold higher than the final concentration desired in broth. Eleven serial 2-fold dilutions of the highest concentration were made in DMSO for new compounds and in water (or appropriate solution) for reference compounds [2]. 1 μL of each well was transferred in a new MTP, which served as the test plate by subsequent inoculation. This bacterial suspension was prepared from strains that were first sub-cultured on agar plates and incubated for 18-24 hours as appropriate. Following incubation, the inoculum was prepared from isolated colonies and adjusted to 0.5 McFarland turbidity standard (1 to 2×10^8 Colony Forming Units (CFU)/mL) in 0.9% saline. The bacterial suspension was then diluted 1:200 in appropriate sterile medium and within 15 minutes 100 μL/well were dispensed. Negative controls (lack of bacterial cells) and growth control wells (lack of compound) were included in all plates. MTPs were incubated for 18-24 hours at 35±2° C. in ambient air. The MIC value of each compound, expressed as μg/mL, was determined as the lowest concentration required for complete growth inhibition (no visible growth). • [1] CLSI (2015) Methods for dilution antimicrobial susceptibility tests for bacteria that grow aerobically; Approved Standard, Tenth Edition. CLSI Document M7-A10 (ISBN 1-56238-987-4). Wayne, PA: Clinical and Laboratory Standards Institute, 19087, USA. • [2] CLSI (2017) Performance Standards for Antimicrobial Susceptibility Testing; Twenty-Fifth Informational Supplement. CLSI Document M100-S27, CLSI, Wayne, Pennsylvania 19087, USA.
Table 1 provides the Minimal Inhibitory Concentrations (MIC) in micrograms per millilitre of the compounds of present invention obtained against the strain Escherichia coli ATCC 25922.

C[C@H](C(=O)Nc1cc(F)c2c(c1)CC(CNCC[C@@H]1CN(c3cnc4c(n3)NC(=O)CO4)C(=O)O1)C2)N(C)C (stereo partly drawn) [Example 71, (2R)-2-(Dimethylamino)-N-[7-fluoro-2-[[2-[(5R)-2-oxo-3-(3-oxo-4H-pyrazino[2,3-b][1,4]oxazin-6-yl)oxazolidin-5-yl]ethylamino]methyl]indan-5-yl]propanamide]
Escherichia coli growth inhibition MIC: 0.125 µg/mL

C[C@H](C(=O)Nc1cc(F)c2c(c1)CC(CNCCC1CN(c3cnc4c(n3)NC(=O)CO4)C(=O)O1)C2)N(C)C (stereo partly drawn) [Example 4, (2R)-2-(dimethylamino)-N-[7-fluoro-2-[[2-[2-oxo-3-(3-oxo-4H-pyrazino[2,3-b][1,4]oxazin-6-yl)oxazolidin-5-yl]ethylamino]methyl]indan-5-yl]propanamide]
MIC: 0.125 µg/mL (≈ 0.231 µM)

O=C(CN1CCOCC1)Nc1cc(F)c2c(c1)CC(CNCCC1CN(c3cnc4c(n3)NC(=O)CO4)C(=O)O1)C2 (stereo not shown) [Example 5, N-[7-fluoro-2-[[2-[2-oxo-3-(3-oxo-4H-pyrazino[2,3-b][1,4]oxazin-6-yl)oxazolidin-5-yl]ethylamino]methyl]indan-5-yl]-2-morpholino-acetamide]
MIC: 1 µg/mL (≈ 1.76 µM)

O=C1COc2ncc(N3CC(CCNCC4Cc5cc(NC(=O)[C@H]6C[C@H](O)CN6)cc(F)c5C4)OC3=O)nc2N1 (stereo partly drawn) [Example 47, (2R,4S)-N-[7-fluoro-2-[[2-[2-oxo-3-(3-oxo-4H-pyrazino[2,3-b][1,4]oxazin-6-yl)oxazolidin-5-yl]ethylamino]methyl]indan-5-yl]-4-hydroxy-pyrrolidine-2-carboxamide]
MIC: 0.25 µg/mL (≈ 0.45 µM)

Cc1cc(NC(=O)[C@@H]2CCCN2C)nc2c1CC(CNCCC1CN(c3cnc4c(n3)NC(=O)CO4)C(=O)O1)C2 (stereo partly drawn) [Example 27, (2S)-1-methyl-N-[4-methyl-6-[[2-[2-oxo-3-(3-oxo-4H-pyrazino[2,3-b][1,4]oxazin-6-yl)oxazolidin-5-yl]ethylamino]methyl]-6,7-dihydro-5H-cyclopenta[b]pyridin-2-yl]pyrrolidine-2-carboxamide]
MIC: 1 µg/mL (≈ 1.82 µM)

C[C@H](C(=O)Nc1cc(F)c2c(c1)CC(CN(C)CCC1CN(c3cnc4c(n3)NC(=O)CO4)C(=O)O1)C2)N(C)C (stereo partly drawn) [Example 58, (2R)-2-(Dimethylamino)-N-[7-fluoro-2-[[methyl-[2-[2-oxo-3-(3-oxo-4H-pyrazino[2,3-b][1,4]oxazin-6-yl)oxazolidin-5-yl]ethyl]amino]methyl]indan-5-yl]propanamide]
MIC: 0.25 µg/mL (≈ 0.45 µM)

O=C1COc2ncc(N3CC(CCNCC4Cc5cc(NC(=O)[C@@H]6C[C@H](O)CN6)cc(F)c5C4)OC3=O)nc2N1 (stereo partly drawn) [Example 46, (2S,4S)-N-[7-fluoro-2-[[2-[2-oxo-3-(3-oxo-4H-pyrazino[2,3-b][1,4]oxazin-6-yl)oxazolidin-5-yl]ethylamino]methyl]indan-5-yl]-4-hydroxy-pyrrolidine-2-carboxamide]
MIC: 0.5 µg/mL (≈ 0.9 µM)

C[C@H](C(=O)Nc1ccc2c(c1F)CC(CNCCC1CN(c3cnc4c(n3)NC(=O)CO4)C(=O)O1)C2)N(C)C (stereo partly shown) [Example 23]
MIC: 0.5 µg/mL (≈ 0.923 µM)

CN(CCC1CN(c2cnc3c(n2)NC(=O)CO3)C(=O)O1)CC1Cc2cc(NC(=O)[C@@H]3C[C@@H](O)CN3)cc(F)c2C1 (stereo partly drawn) [Example 63, (2S,4R)—N-[7-Fluoro-2-[[methyl-[2-[2-oxo-3-(3-oxo-4H-pyrazino[2,3-b][1,4]oxazin-6-yl)oxazolidin-5-yl]ethyl]amino]methyl]indan-5-yl]-4-hydroxy-pyrrolidine-2-carboxamide]
MIC: 0.25 µg/mL (≈ 0.439 µM)

O=C1COc2ncc(N3CC(CCNCC4Cc5cc(NC(=O)[C@@H]6CCCN6)cc(F)c5C4)OC3=O)nc2N1 (stereo partly drawn) [Example 36, (2S)—N-[7-Fluoro-2-[[2-[2-oxo-3-(3-oxo-4H-pyrazino[2,3-b][1,4]oxazin-6-yl)oxazolidin-5-yl]ethylamino]methyl]indan-5-yl]pyrrolidine-2-carboxamide]
MIC: 0.25 µg/mL (≈ 0.463 µM)

N#Cc1cc(NC(=O)[C@@H]2C[C@@H](O)CN2)cc2c1CC(CNCCC1CN(c3cnc4c(n3)NC(=O)CO4)C(=O)O1)C2 (stereo partly drawn) [Example 61, (2S,4R)—N-[7-Cyano-2-[[2-[2-oxo-3-(3-oxo-4H-pyrazino[2,3-b][1,4]oxazin-6-yl)oxazolidin-5-yl]ethylamino]methyl]indan-5-yl]-4-hydroxy-pyrrolidine-2-carboxamide]
MIC: 0.5 µg/mL (≈ 0.889 µM)

O=C(CN1CCC1)Nc1cc(F)c2c(c1)CC(CNCCC1CN(c3cnc4c(n3)NC(=O)CO4)C(=O)O1)C2 (stereo not shown) [Example 8, 2-(azetidin-1-yl)-N-[7-fluoro-2-[2-[2-oxo-3-(3-oxo-4H-pyrazino[2,3-b][1,4]oxazin-6-yl)oxazolidin-5-yl]ethylaminomethyl]indan-5-yl]acetamide]
MIC: 0.125 µg/mL (≈ 0.232 µM)

O=C1COc2ncc(N3CC4(CCN(CC5Cc6cc(NC(=O)[C@H]7C[C@H](O)CN7)cc(F)c6C5)CC4)OC3=O)nc2N1 (stereo partly drawn) [Example 56, (2R,4S)—N-[7-Fluoro-2-[[2-oxo-3-(3-oxo-4H-pyrazino[2,3-b][1,4]oxazin-6-yl)-1-oxa-3,8-diazaspiro[4.5]decan-8-yl]methyl]indan-5-yl]-4-hydroxy-pyrrolidine-2-carboxamide]
MIC: ≤ 0.06 µg/mL

CC(C)(O)C(=O)Nc1cc(C#N)c2c(c1)CC(CNCCC1CN(c3ccc4c(n3)NC(=O)CO4)C(=O)O1)C2 (stereo not shown) [Example 21, N-[7-cyano-2-[[2-[2-oxo-3-(3-oxo-4H-pyrido[3,2-b][1,4]oxazin-6-yl)oxazolidin-5-yl]ethylamino]methyl]indan-5-yl]-2-hydroxy-2-methyl-propanamide]
MIC: 0.5 µg/mL (≈ 0.935 µM)

CN(CC(=O)Nc1cc(F)c2c(c1)CC(CNCCC1CN(c3cnc4c(n3)NC(=O)CO4)C(=O)O1)C2)C1COC1 (stereo not shown) [Example 11]
MIC: 0.5 µg/mL (≈ 0.878 µM)

O=C1COc2ncc(N3CC4(CCN(CC5Cc6cc(NC(=O)[C@@H]7C[C@@H](O)CN7)cnc6C5)CC4)OC3=O)nc2N1 (stereo partly drawn) [Example 60, (2S,4R)-4-Hydroxy-N-[6-[[2-oxo-3-(3-oxo-4H-pyrazino[2,3-b][1,4]oxazin-6-yl)-1-oxa-3,8-diazaspiro[4.5]decan-8-yl]methyl]-6,7-dihydro-5H-cyclopenta[b]pyridin-3-yl]pyrrolidine-2-carboxamide]
MIC: 0.5 µg/mL (≈ 0.886 µM)

CC(C)(N)C(=O)Nc1cc(F)c2c(c1)CC(CNCCC1CN(c3cnc4c(n3)NC(=O)CO4)C(=O)O1)C2 (stereo not shown) [Example 43, 2-amino-N-[7-fluoro-2-[[2-[2-oxo-3-(3-oxo-4H-pyrazino[2,3-b][1,4]oxazin-6-yl)oxazolidin-5-yl]ethylamino]methyl]indan-5-yl]-2-methyl-propanamide]
MIC: 0.25 µg/mL (≈ 0.474 µM)

Cc1cc(NC(=O)[C@@H](C)N(C)C)nc2c1CC(CNCCC1CN(c3cnc4c(n3)NC(=O)CO4)C(=O)O1)C2 (stereo partly drawn) [Example 25, (2R)-2-(dimethylamino)-N-[4-methyl-6-[[2-[2-oxo-3-(3-oxo-4H-pyrazino[2,3-b][1,4]oxazin-6-yl)oxazolidin-5-yl]ethylamino]methyl]-6,7-dihydro-5H-cyclopenta[b]pyridin-2-yl]propanamide]
MIC: 1 µg/mL (≈ 1.86 µM)

Cc1nc(NC(=O)[C@@H](C)N(C)C)cc2c1CC(CN1CCC3(CC1)CN(c1cnc4c(n1)NC(=O)CO4)C(=O)O3)C2 (stereo partly drawn) [Example 29, (2R)-2-(dimethylamino)-N-[1-methyl-6-[[2-oxo-3-(3-oxo-4H-pyrazino[2,3-b][1,4]oxazin-6-yl)-1-oxa-3,8-diazaspiro[4.5]decan-8-yl]methyl]-6,7-dihydro-5H-cyclopenta[c]pyridin-3-yl]propanamide]
MIC: 0.5 µg/mL (≈ 0.886 µM)
